*1 amine or outer side, *2 acyl side, *3 side chain or, on linkers, in order; H or OH if unused. Where a SMILES comes first, the peptide text is derived from it. Bridges are numbered along the chain shown (N, C = ends). [ ]: non-standard residue; d: D form. The star is where a group is joined. hPhe(3-OMe,4-CONHMe) = CNC(=O)c1ccc(CC[C@H](N)C(=O)O)cc1OC; Phe(3-CONHMe,4-OMe) = CNC(=O)c1cc(C[C@H](N)C(=O)O)ccc1OC; Phe(3-OMe,4-CONHMe) = CNC(=O)c1ccc(C[C@H](N)C(=O)O)cc1OC; X11 = CNC(=O)c1ccc(CCN(CC(=O)[*:2])[*:1])cc1OC; NMePhe(3-Cl) = CN[C@@H](Cc1cccc(Cl)c1)C(=O)O; X12 = O=C([C@H](CCCC(O)C(F)(F)F)N[*:1])[*:2]; NMehPhe = CN[C@@H](CCc1ccccc1)C(=O)O; X6 = O=C([C@H](CCCCO)N[*:1])[*:2]; Hyp = O=C(O)[C@@H]1C[C@@H](O)CN1; NMeF = CN[C@@H](Cc1ccccc1)C(=O)O; NMeGABA = CN(CCCC(=O)[*:2])[*:1]; CH2CONHtBu = CC(C)(C)NC(=O)C*; NMeL = CN[C@@H](CC(C)C)C(=O)O; Butyl(3R-OH) = C[C@@H](O)CC*; Butyl(3S-OH) = C[C@H](O)CC*; NMeV = CN[C@H](C(=O)O)C(C)C; NMeAbu = CC[C@H](NC)C(=O)O; NMeA = CN[C@@H](C)C(=O)O; Piperidide = C1CCN(*)CC1; dAbu = CC[C@@H](N)C(=O)O; X8 = C1COC[C@@H](C*)N1; Me2NCH2CH2 = CN(C)CC*; NBuGly = CCCCNCC(=O)O; NPrGly = CCCNCC(=O)O; Ethyl(2-OH) = OCC*; Sar = CNCC(=O)O; tBu = CC(C)(C)*
Assay: in vitro
Conditions: human, Caco-2, Caco-2
`CCCN1CC(=O)N(C)[C@@H](CC(C)C)C(=O)N[C@@H](COC(C)(C)C)C(=O)N(C)[C@@H](Cc2ccccc2)C(=O)N(C)[C@@H](C(C)C)C(=O)N[C@H](C(=O)N2CCCCC2)CC(=O)N[C@H](C(C)C)C(=O)N(C)[C@@H](Cc2ccccc2)C(=O)N[C@@H](COCCN(C)C)C(=O)N(C)[C@@H](CC(C)C)C(=O)N[C@@H]([C@@H](C)O)C1=O` [pd50] ([dV][NMeF]S(Me2NCH2CH2)[NMeL]T[NPrGly][NMeL]S(tBu)[NMeF][NMeV]D-Piperidide; lactam N-11) showed a Papp of 0.15 ×10⁻⁶ cm/s.

Same assay, conditions: human, Caco-2, Caco-2 (cm/sec)
`CCCN1CC(=O)N(C)[C@@H](CC(C)C)C(=O)N[C@@H](CCCCO)C(=O)N(C)[C@@H](Cc2cccc(Cl)c2)C(=O)N(C)[C@@H](CC(C)C)C(=O)N[C@H](C(=O)N2CCCCC2)CC(=O)N[C@H](CC)C(=O)N(C)[C@@H](Cc2ccccc2)C(=O)N[C@@H](CC(C)C)C(=O)N(C)[C@@H](CC(C)C)C(=O)N[C@@H]([C@@H](C)O)C1=O` [Compound B10] ([dAbu][NMeF]L[NMeL]T[NPrGly][NMeL][X6][NMePhe(3-Cl)][NMeL]D-Piperidide; lactam N-11) gave a Papp of 0.25 ×10⁻⁶ cm/s. With `CC(C)C[C@@H]1NC(=O)[C@H](Cc2ccccc2)N(C)C(=O)[C@H](CC(C)C)N(C)C(=O)[C@H](COCC(=O)NC(C)(C)C)NC(=O)[C@H](CC(C)C)N(C)C(=O)C[C@@H](C(=O)N2CCCCC2)NC(=O)[C@H](C)N(C)C(=O)CN(C)C(=O)[C@H]([C@@H](C)O)NC(=O)[C@H](CC(C)C)N(C)C(=O)[C@H](CCc2ccccc2)N(C)C1=O` [AP14] ([NMeL]S(CH2CONHtBu)[NMeL][NMeF]L[NMehPhe][NMeL]T[Sar][NMeA]D-Piperidide; lactam N-11) the Papp was 0.39 ×10⁻⁶ cm/s. With `CC(C)C[C@@H]1NC(=O)[C@H](Cc2ccccc2)N(C)C(=O)[C@@H](C(C)C)NC(=O)C[C@@H](C(=O)N2CCCCC2)NC(=O)[C@H](Cc2ccccc2)N(C)C(=O)[C@H](Cc2ccccc2)N(C)C(=O)[C@H](C(C)C)NC(=O)[C@H](CC(C)C)N(C)C(=O)CN(C)C(=O)[C@H]([C@@H](C)O)NC(=O)[C@H](CC(C)C)N(C)C1=O` [pd221] ([dV][NMeF]L[NMeL]T[Sar][NMeL]V[NMeF][NMeF]D-Piperidide; lactam N-11) the Papp was 1.1 ×10⁻⁶ cm/s. In the case of `CCCCN1CC(=O)N(C)[C@@H](CC(C)C)C(=O)N[C@H](C(=O)N2CCCCC2)CC(=O)N(C)[C@@H](C)C(=O)N[C@@H](COCC[C@@H](C)O)C(=O)N(C)[C@@H](CC(C)C)C(=O)N(C)[C@@H](Cc2cccc(Cl)c2)C(=O)N[C@@H](CC(C)C)C(=O)N(C)[C@@H](Cc2ccccc2)C(=O)N(C)[C@@H](C(C)C)C(=O)N[C@@H]([C@@H](C)O)C1=O` [AP112] ([NMeA]S(Butyl(3R-OH))[NMeL][NMePhe(3-Cl)]L[NMeF][NMeV]T[NBuGly][NMeL]D-Piperidide; lactam N-11), the Papp is reported as 0.73 ×10⁻⁶ cm/s. Work on `CCCCN1CC(=O)N(C)[C@@H](CC(C)C)C(=O)N[C@@H](COC(C)(C)C)C(=O)N(C)[C@@H](Cc2ccccc2)C(=O)N(C)[C@@H](CC(C)C)C(=O)N[C@H](C(=O)N2CCCCC2)CC(=O)N[C@H](C(C)C)C(=O)N(C)[C@@H](C(C)C)C(=O)N[C@@H](Cc2ccc(OC)c(C(=O)NC)c2)C(=O)N(C)[C@@H](CC(C)C)C(=O)N[C@@H]([C@@H](C)O)C1=O` [AP35] ([dV][NMeV][Phe(3-CONHMe,4-OMe)][NMeL]T[NBuGly][NMeL]S(tBu)[NMeF][NMeL]D-Piperidide; lactam N-11) yielded a Papp of 2 ×10⁻⁶ cm/s. `CCCCN1CC(=O)N(C)[C@@H](CC(C)C)C(=O)N[C@H](C(=O)N2CCCCC2)CC(=O)N(C)[C@@H](CC)C(=O)N[C@@H](CC(C)C)C(=O)N(C)[C@@H](CC(C)C)C(=O)N(C)[C@@H](Cc2ccccc2)C(=O)N[C@@H](COC[C@@H]2COCCN2)C(=O)N(C)[C@@H](CC)C(=O)N(C)[C@@H](CC(C)C)C(=O)N[C@@H]([C@@H](C)O)C1=O` [AP242] ([NMeAbu]L[NMeL][NMeF]S(X8)[NMeAbu][NMeL]T[NBuGly][NMeL]D-Piperidide; lactam N-11) gave a Papp of 1.2 ×10⁻⁶ cm/s. `CCCCN1CC(=O)N(C)[C@@H](C(C)C)C(=O)N[C@@H](COC(C)(C)C)C(=O)N(C)[C@@H](Cc2ccccc2)C(=O)N(C)[C@@H](CC(C)C)C(=O)N[C@H](C(=O)N2CCCCC2)CC(=O)N[C@H](C(C)C)C(=O)N(C)[C@@H](Cc2ccccc2)C(=O)N[C@@H](COCC[C@H](C)O)C(=O)N(C)[C@@H](CC(C)C)C(=O)N[C@@H]([C@@H](C)O)C1=O` [AP99] ([dV][NMeF]S(Butyl(3S-OH))[NMeL]T[NBuGly][NMeV]S(tBu)[NMeF][NMeL]D-Piperidide; lactam N-11) showed a Papp of 0.86 ×10⁻⁶ cm/s. Compound `CCCN1CC(=O)N(C)[C@@H](Cc2cccc(Cl)c2)C(=O)N(C)[C@@H](CC(C)C)C(=O)N[C@@H](COCCO)C(=O)N(C)[C@@H](CC(C)C)C(=O)N[C@H](C(=O)N2CCCCC2)CC(=O)N(C)CC(=O)N(C)[C@@H](CCc2ccccc2)C(=O)N[C@@H]([C@@H](C)CC)C(=O)N(C)[C@@H](CC(C)C)C(=O)N[C@@H]([C@@H](C)O)C1=O` [Compound A08] ([Sar][NMehPhe]I[NMeL]T[NPrGly][NMePhe(3-Cl)][NMeL]S(Ethyl(2-OH))[NMeL]D-Piperidide; lactam N-11) has a Papp of 0.32 ×10⁻⁶ cm/s. `CNC(=O)c1ccc(CC[C@@H]2NC(=O)[C@H](CC(C)C)N(C)C(=O)CN(C)C(=O)[C@H]([C@@H](C)O)NC(=O)[C@H](CC(C)C)N(C)C(=O)[C@H](CC(C)C)NC(=O)[C@H](Cc3ccccc3)N(C)C(=O)[C@@H](C(C)C)NC(=O)C[C@@H](C(=O)N3CCCCC3)NC(=O)[C@H](CC(C)C)N(C)C(=O)[C@H](CC(C)C)N(C)C2=O)cc1OC` [AP200] ([dV][NMeF]L[NMeL]T[Sar][NMeL][hPhe(3-OMe,4-CONHMe)][NMeL][NMeL]D-Piperidide; lactam N-11) gave a Papp of 0.88 ×10⁻⁶ cm/s. With `CC(C)C[C@@H]1NC(=O)C[C@@H](C(=O)N2CCCCC2)NC(=O)[C@H](CC(C)C)N(C)C(=O)[C@H](Cc2ccccc2)NC(=O)[C@H](Cc2ccccc2)N(C)C(=O)[C@H]([C@@H](C)O)NC(=O)[C@H](CC(C)C)N(C)C(=O)[C@@H]2C[C@@H](OCCO)CN2C(=O)[C@H](CC(C)C)N(C)C(=O)[C@H](COC(C)(C)C)NC(=O)[C@H](CC(C)C)N(C)C1=O` [AP235] (L[NMeL]S(tBu)[NMeL][Hyp](Ethyl(2-OH))[NMeL]T[NMeF]F[NMeL]D-Piperidide; lactam N-11) the Papp was 1.5 ×10⁻⁶ cm/s. Compound `CC[C@H](C)[C@@H]1NC(=O)[C@H](CC(C)C)N(C)C(=O)CN(C)C(=O)C[C@@H](C(=O)N2CCCCC2)NC(=O)[C@H](CC(C)C)N(C)C(=O)[C@H](COC(C)(C)C)NC(=O)[C@H](CC(C)C)N(C)C(=O)[C@H](Cc2ccccc2)N(C)C(=O)CN(CCc2ccc(C(=O)NC)c(OC)c2)C(=O)[C@H]([C@@H](C)O)NC(=O)[C@H](CC)N(C)C1=O` [AP218] ([Sar][NMeL]I[NMeAbu]T[X11][NMeF][NMeL]S(tBu)[NMeL]D-Piperidide; lactam N-11) has a Papp of 0.55 ×10⁻⁶ cm/s. `CC(C)C[C@@H]1NC(=O)[C@H](CCc2ccccc2)N(C)C(=O)[C@H](CCc2ccccc2)N(C)C(=O)[C@H](CCCCO)NC(=O)[C@H](C(C)C)N(C)C(=O)CCCN(C)C(=O)C[C@@H](C(=O)N2CCCCC2)NC(=O)[C@H](CC(C)C)N(C)C(=O)[C@H](CC(C)C)N(C)C(=O)[C@H]([C@@H](C)O)NC(=O)[C@H](CC(C)C)N(C)C1=O` [Compound B03] ([NMeGABA][NMeV][X6][NMehPhe][NMehPhe]L[NMeL]T[NMeL][NMeL]D-Piperidide; lactam N-11) showed a Papp of 0.27 ×10⁻⁶ cm/s. In the case of `CCCCN1CC(=O)N(C)[C@@H](CC(C)C)C(=O)N[C@H](C(=O)N2CCCCC2)CC(=O)N(C)[C@@H](C)C(=O)N[C@@H](COC[C@@H]2COCCN2)C(=O)N(C)[C@@H](CC(C)C)C(=O)N(C)[C@@H](CC)C(=O)N[C@@H](C(C)C)C(=O)N(C)[C@@H](Cc2ccccc2)C(=O)N(C)[C@@H](CC(C)C)C(=O)N[C@@H]([C@@H](C)O)C1=O` [AP243] ([NMeA]S(X8)[NMeL][NMeAbu]V[NMeF][NMeL]T[NBuGly][NMeL]D-Piperidide; lactam N-11), the Papp is reported as 0.46 ×10⁻⁶ cm/s. Compound `CCCCN1CC(=O)N(C)[C@@H](CC(C)C)C(=O)N(C)[C@@H](CC(C)C)C(=O)N[C@@H](COC(C)(C)C)C(=O)N(C)[C@@H](CC(C)C)C(=O)N[C@H](C(=O)N2CCCCC2)CC(=O)N(C)CC(=O)N(C)[C@@H](Cc2cccc(Cl)c2)C(=O)N[C@@H](Cc2ccc(C(=O)NC)c(OC)c2)C(=O)N(C)[C@@H](CC(C)C)C(=O)N[C@@H]([C@@H](C)O)C1=O` [AP33] ([Sar][NMePhe(3-Cl)][Phe(3-OMe,4-CONHMe)][NMeL]T[NBuGly][NMeL][NMeL]S(tBu)[NMeL]D-Piperidide; lactam N-11) has a Papp of 0.61 ×10⁻⁶ cm/s.

Same assay, conditions: human, Caco-2, Caco-2 (cm/sec) Papp
With `CC(C)C[C@@H]1NC(=O)[C@H](Cc2ccccc2)N(C)C(=O)[C@H](COC(C)(C)C)NC(=O)[C@H](Cc2ccccc2)N(C)C(=O)[C@H](Cc2ccccc2)N(C)C(=O)[C@H](CC(C)C)N(C)C(=O)[C@@H](CC(C)C)NC(=O)C[C@@H](C(=O)N2CCCCC2)NC(=O)[C@H](Cc2ccccc2)N(C)C(=O)[C@H]([C@@H](C)O)NC(=O)[C@H](CC(C)C)N(C)C1=O` [pd243] ([dL][NMeL][NMeF][NMeF]S(tBu)[NMeF]L[NMeL]T[NMeF]D-Piperidide; lactam N-11) the Papp was 0.057 ×10⁻⁶ cm/s.

Same assay, conditions: human, Caco-2, Caco-2 (membrane permeability)
For `CCCCN1CC(=O)N(C)[C@@H](Cc2ccccc2)C(=O)N(C)[C@@H](CC(C)C)C(=O)N[C@@H](COC(C)(C)C)C(=O)N(C)[C@@H](CC(C)C)C(=O)N[C@H](C(=O)N2CCCCC2)CC(=O)N(C)CC(=O)N(C)[C@@H](Cc2ccccc2)C(=O)N[C@@H](C(C)C)C(=O)N(C)[C@@H](CC)C(=O)N[C@@H](CCCC(O)C(F)(F)F)C1=O` (stereo partly drawn) [Compound D16] ([Sar][NMeF]V[NMeAbu][X12][NBuGly][NMeF][NMeL]S(tBu)[NMeL]D-Piperidide; lactam N-11), the Papp was 0.51 ×10⁻⁶ cm/s. For `CC[C@H]1C(=O)N[C@@H](COC(C)(C)C)C(=O)N(C)[C@@H](Cc2ccccc2)C(=O)N(C)[C@@H](CC(C)C)C(=O)N[C@H](C(=O)N2CCCCC2)CC(=O)N[C@H](CC(C)C)C(=O)N(C)[C@@H](Cc2ccccc2)C(=O)N[C@@H](CC(C)C)C(=O)N(C)[C@@H](CC)C(=O)N[C@@H](CCCC(O)C(F)(F)F)C(=O)N(C)CC(=O)N1C` (stereo partly drawn) [Compound D10] ([dL][NMeF]L[NMeAbu][X12][Sar][NMeAbu]S(tBu)[NMeF][NMeL]D-Piperidide; lactam N-11), the Papp was 0.81 ×10⁻⁶ cm/s.
